Two compounds from patent publication US20240285547A1, “NEPHROTOXICITY REDUCING AGENT” (Nippon Shinyaku Co., Ltd., priority 2021, published 2024) can be followed below.

Each structure is given as a SMILES string.

For data set [1], the system named is C57BL/6J male mice. Description: Evaluation of nephrotoxicity reducing effects of D-mannitol: serum BUN and Cre after tail vein administration of PMO dosing solutions. As to conditions: D-mannitol in PMO dosing solution vs control dosing solution comprising no D-mannitol.
Text: The antisense oligomers of PMO Nos. 1, 2, 6, 7, and 10 were each dissolved in water for injection comprising 0.9% sodium chloride (manufactured by Otsuka Pharmaceutical Co., Ltd.) to prepare a control dosing solution comprising each of the antisense oligomers at the concentrations shown in Tables 2, 3, 6, 7, and 8 and comprising no D-mannitol. Also, the antisense oligomers of PMO Nos. 3 and 4 were each dissolved in 5% glucose (manufactured by Otsuka Pharmaceutical Co., Ltd.) to prepare a control dosing solution comprising each of the antisense oligomers at the concentrations shown in Tables 4 and 5 and comprising no D-mannitol. […]
The obtained dosing solutions were administered into the tail vein of 6-week-old C57BL/6J male mice at 4, 10, and 20 mL/kg. Next day, serum was collected from the mice, and the blood urea nitrogen (BUN) values and blood creatinine (Cre) values were measured with the urease-GIDH method and the enzymatic method, respectively, using automatic biochemical analyzers JCA-BM6050 or JCA-BM8060 (manufactured by JEOL Ltd.).
The nature of data set [2]: Evaluation of precipitation suppressing effects with D-mannitol (absorbance at 620 nm in presence of ions assumed to be in urine). The class given is physicochemical. As to conditions: D-mannitol as medium for PMO Nos. 1, 2, 3, 5, 6, 7, ions assumed to be in urine, 37° C. Here is the method: The amount of precipitation in the presence of ions assumed to be in urine and precipitation suppressing effects of D-mannitol were evaluated on the antisense oligomers of PMO Nos. 1, 2, 3, 5, 6, and 7 (SEQ ID NO: 1, 2, 3, 5, 6, and 7) among those listed in Table 1 to further verify their utility for pharmaceutical applications.

Data set [3] has as its system C57BL/6J male mice. Description: Evaluation of nephrotoxicity reducing effects of D-sorbitol: serum BUN and Cre after tail vein administration of PMO dosing solutions. As to conditions: D-sorbitol in PMO dosing solution vs dosing solution comprising no D-sorbitol.
Experimental: Next, the antisense oligomer of PMO No. 2 was dissolved in a solution obtained by dissolving D-sorbitol (manufactured by Maruishi Pharmaceutical Co., Ltd.) with physiological saline to prepare a dosing solution comprising the antisense oligomer and D-sorbitol at the concentrations shown in Table 9. Also, the antisense oligomer of PMO No. 3 was dissolved in a solution obtained by dissolving D-sorbitol with water for injection to prepare a dosing solution comprising the antisense oligomer and D-sorbitol at the concentrations shown in Table 10.
The obtained dosing solutions were administered into the tail vein of 6-week-old C57BL/6J male mice (N=3) at 4 and 10 mL/kg. Next day, serum was collected from the mice, and the blood urea nitrogen (BUN) values and blood creatinine (Cre) values were measured with the urease-GIDH method and the enzymatic method, respectively, using automatic biochemical analyzers JCA-BM8060 (manufactured by JEOL Ltd.). It was determined that the nephrotoxicity was reduced in a case where both of the BUN values and Cre values decreased in the mice to which the dosing solution comprising D-sorbitol has been administered, compared to the mice to which the dosing solution comprising no D-sorbitol has been administered.

Turning to `OC[C@@H](O)[C@@H](O)[C@H](O)[C@H](O)CO` [D-mannitol], the Nephrotoxicity reducing effect result in the data set on C57BL/6J male mice [1] is recorded as “reduce nephrotoxicity”. In addition, the Precipitation suppressing effect entry in data set [2] is listed as “suppress the precipitation of antisense oligomers”.

`OC[C@@H](O)[C@@H](O)[C@H](O)[C@@H](O)CO` [D-sorbitol]: in the data set with C57BL/6J male mice [3], the Nephrotoxicity reducing effect entry is recorded as “reduce nephrotoxicity”.
